What was measured:
[1] = tested on: microbial flora in the target watershed; assay: minimum inhibitory concentration (MIC) by EUCAST database and drug resistance prediction invalid concentration PNECr; conditions: PNECR=MIC/AF, AF 10
From the text: Minimum inhibitory concentration (MIC) of some antibiotics and drug resistance prediction invalid concentration (PNECr) of microbes

[2] = tested on: microbial flora in the target watershed; conditions: determined by EUCAST database; unit assumed; cited from earlier work
[3] = tested on: microbial flora in the target watershed (environmental microbes, resistant genes); conditions: logistic model fitting of S against concentration; target solution DNA
[4] = buffer; cited from earlier work

Compound: NCC[C@H](O)C(=O)N[C@@H]1C[C@H](N)[C@@H](O[C@H]2O[C@H](CN)[C@@H](O)[C@H](O)[C@H]2O)[C@H](O)[C@H]1O[C@H]1O[C@H](CO)[C@@H](O)[C@H](N)[C@H]1O [Amikacin]
- PNECr [1]: 25
- Observed MIC [2]: 250 µg/mL

Compound: C[C@@H]1[C@H](O)[C@@H](C)/C=C/C=C/C=C/C=C/C=C/C=C/C=C/[C@H](O[C@@H]2O[C@H](C)[C@@H](O)[C@H](N)[C@@H]2O)C[C@@H]2O[C@](O)(C[C@@H](O)C[C@@H](O)[C@H](O)CC[C@@H](O)C[C@@H](O)CC(=O)O[C@H]1C)C[C@H](O)[C@H]2C(=O)O [Amphotericin B]
- PNECr [1]: 0.8
- Observed MIC [2]: 8 µg/mL

Compound: COC[C@H]1O[C@@H](OC2OC[C@@H]3O[C@]4(O[C@H]3[C@H]2OC(=O)C(C)C)O[C@H](C)[C@@](O)(C(C)=O)[C@@H]2OCO[C@H]24)[C@@H](OC)[C@@H](O)[C@@H]1O[C@@H]1O[C@H](C)[C@H](OC)[C@H](O[C@H]2C[C@@]3(C)OC4(C[C@@H](O)[C@H](O[C@H]5C[C@@H](O)[C@H](OC(=O)c6c(C)c(Cl)c(O)c(Cl)c6OC)[C@@H](C)O5)[C@@H](C)O4)O[C@@H]3[C@@H](C)O2)[C@H]1O (stereo partly shown) [Avilamycin]
- PNECr [1]: 100
- Observed MIC [2]: 1000 µg/mL

Compound: C[C@@H](O)[C@H]1C(=O)N2C(C(=O)O)=C(S[C@@H]3CN[C@H](CNS(N)(=O)=O)C3)[C@H](C)[C@H]12 [Doripenan]
- PNECr [1]: 0.2
- Observed MIC [2]: 2 µg/mL

Compound: O=C1CN(/N=C/c2ccc([N+](=O)[O-])o2)C(=O)N1 [Furantoin]
- PNECr [1]: 400
- Observed MIC [2]: 4000 µg/mL

Compound: CC1(C)S[C@@H]2[C@H](/N=C/N3CCCCCC3)C(=O)N2[C@H]1C(=O)O [Messilinan]
- PNECr [1]: 6.4
- Observed MIC [2]: 64 µg/mL

Compound: CN(C)[C@@H]1C(O)=C(C(N)=O)C(=O)[C@@]2(O)C(O)=C3C(=O)c4c(O)cccc4[C@@](C)(O)[C@H]3[C@H](O)[C@@H]12 [Oxytetracycline]
- PNECr [1]: 12.5
- Observed MIC [2]: 125 µg/mL

Compound: CN(C)[C@@H]1C(O)=C(C(N)=O)C(=O)[C@@]2(O)C(O)=C3C(=O)c4c(O)cccc4[C@@](C)(O)[C@H]3C[C@@H]12 [Tetracycline]
- MSC value (antibiotic concentration at S=0) [3]: ~11.39 µg/L

Compound: CS(=O)(=O)c1ccc([C@@H](O)[C@@H](CO)NC(=O)C(Cl)Cl)cc1 [Thiamphenicol]
- PNECr [1]: 50
- Observed MIC [2]: 500 µg/mL

Compound: CC1(C)S[C@@H]2[C@H](NC(=O)[C@H](C(=O)O)c3ccsc3)C(=O)N2[C@H]1C(=O)O [Ticarcillin]
- PNECr [1]: 25
- Observed MIC [2]: 250 µg/mL

Compound: CN(C)c1cc(NC(=O)CNC(C)(C)C)c(O)c2c1C[C@H]1C[C@H]3[C@H](N(C)C)C(O)=C(C(N)=O)C(=O)[C@@]3(O)C(O)=C1C2=O [Tigecycline]
- Observed MIC [2]: 16 µg/mL

Compound: NC[C@H]1O[C@H](O[C@H]2[C@H](O)[C@@H](O[C@H]3O[C@H](CO)[C@@H](O)[C@H](N)[C@H]3O)[C@H](N)C[C@@H]2N)[C@H](N)C[C@@H]1O [Tobramycin]
- Observed MIC [2]: 16 µg/mL

Compound: N[C@@H]1[C@H]2CN(c3nc4c(cc3F)c(=O)c(C(=O)O)cn4-c3ccc(F)cc3F)C[C@@H]12 [Travafloxacin]
- PNECr [1]: 0.8
- Observed MIC [2]: 8 µg/mL

Compound: COc1cc(Cc2cnc(N)nc2N)cc(OC)c1OC [Trimethoprim]
- Observed MIC [2]: 16 µg/mL

Compound: CC[C@H]1OC(=O)C[C@@H](O)[C@H](C)[C@@H](O[C@@H]2O[C@H](C)[C@@H](O[C@H]3C[C@@](C)(O)[C@@H](O)[C@H](C)O3)[C@H](N(C)C)[C@H]2O)[C@@H](CC=O)C[C@@H](C)C(=O)/C=C/C(C)=C/[C@@H]1CO[C@@H]1O[C@H](C)[C@@H](O)[C@@H](OC)[C@H]1OC [Tylosin]
- PNECr [1]: 200
- Observed MIC [2]: 2000 µg/mL

Compound: C[C@@H](c1ncncc1F)[C@](O)(Cn1cncn1)c1ccc(F)cc1F [Voriconazole]
- Observed MIC [2]: 2 µg/mL

Compound: Bacitracin
- PNECr [1]: 200
- Observed MIC [2]: 2000 µg/mL

Compound: Capreomycin
- PNECr [1]: 100
- Observed MIC [2]: 1000 µg/mL

Compound: Cefadroxil
- PNECr [1]: 12.5
- Observed MIC [2]: 125 µg/mL

Compound: Cefalexin
- PNECr [1]: 25
- Observed MIC [2]: 250 µg/mL

Compound: Chloramphenicol
- PNECr [1]: 12.5
- Observed MIC [2]: 125 µg/mL

Compound: Colistin
- PNECr [1]: 6.4
- Observed MIC [2]: 64 µg/mL

Compound: Dehydrated erythromycin
- t1/2 [4]: 365 days

Compound: Ethambutol
- PNECr [1]: 100
- Observed MIC [2]: 1000 µg/mL

Compound: FLORFENICOL
- PNECr [1]: 12.5
- Observed MIC [2]: 125 µg/mL

Compound: Fosfomycin
- PNECr [1]: 12.5
- Observed MIC [2]: 125 µg/mL

Compound: Fusiform acid
- PNECr [1]: 3.2
- Observed MIC [2]: 32 µg/mL

Compound: Gentamicin
- PNECr [1]: 1.6
- Observed MIC [2]: 16 µg/mL

Compound: Kanamycin
- PNECr [1]: 12.5
- Observed MIC [2]: 125 µg/mL

Compound: Lincomycin
- PNECr [1]: 50
- Observed MIC [2]: 500 µg/mL

Compound: Linezolid
- PNECr [1]: 12.5
- Observed MIC [2]: 125 µg/mL

Compound: Lolakabiv
- PNECr [1]: 12.5
- Observed MIC [2]: 125 µg/mL

Compound: Mikafenjin
- PNECr [1]: 0.4
- Observed MIC [2]: 4 µg/mL

Compound: Nalidixic acid
- PNECr [1]: 50
- Observed MIC [2]: 500 µg/mL

Compound: Narasin
- PNECr [1]: 12.5
- Observed MIC [2]: 125 µg/mL

Compound: Neomycin
- PNECr [1]: 12.5
- Observed MIC [2]: 125 µg/mL

Compound: Pefloxacin
- PNECr [1]: 400
- Observed MIC [2]: 4000 µg/mL

Compound: Penicillin
- PNECr [1]: 0.4
- Observed MIC [2]: 4 µg/mL

Compound: Quinupustine
- PNECr [1]: 0.4
- Observed MIC [2]: 4 µg/mL

Compound: Sparfloxacin
- PNECr [1]: 50
- Observed MIC [2]: 500 µg/mL

Compound: Spiramycin
- PNECr [1]: 200
- Observed MIC [2]: 2000 µg/mL

Compound: Streptomycin
- PNECr [1]: 12.5
- Observed MIC [2]: 125 µg/mL

Compound: Sulbactam sodium
- PNECr [1]: 25
- Observed MIC [2]: 250 µg/mL

Compound: Sulfamethoxazole
- PNECr [1]: 100
- Observed MIC [2]: 1000 µg/mL

Compound: Teicoplanin
- PNECr [1]: 100
- Observed MIC [2]: 1000 µg/mL

Compound: Tiamulin
- PNECr [1]: 50
- Observed MIC [2]: 500 µg/mL

Compound: Tilmicosin
- PNECr [1]: 25
- Observed MIC [2]: 250 µg/mL

Compound: Vancomycin
- PNECr [1]: 12.5
- Observed MIC [2]: 125 µg/mL

Compound: Viomycin
- PNECr [1]: 100
- Observed MIC [2]: 1000 µg/mL

Compound: Virginiamycin
- PNECr [1]: 25
- Observed MIC [2]: 250 µg/mL
